What was measured:
Format in all cases: in vivo, C57/BL6 mice
Details in all cases: 200 μl of 1% solution i.p., blood 16 hr later, vs saline
[1] = tested on: monocytes in the whole blood cells; assay: ratio of monocytes in whole blood cells, Siemens Advia 120 (Examples 10, 11)
Experimental: About 3-month-old C57/BL6 mice were intraperitoneally injected with 200 μl of saline (control) or 1% solution of respective compounds (dissolved in saline). Blood was collected 16 hr later, and the ratio of monocytes in the whole blood cells was measured using Siemens Advia 120.
About 3-month-old C57/BL6 mice were intraperitoneally injected with 200 μl of saline (control) or 1% allyl isothiocyanate solution (dissolved in saline). Blood was collected 16 hr later, and the ratio of monocytes in the whole blood cells was measured using Siemens Advia 120.

[2] = tested on: neutrophils in the whole blood cells; assay: ratio of neutrophils in whole blood cells, Siemens Advia 120 (Examples 12, 13)
Experimental: About 3-month-old C57/BL6 mice were intraperitoneally injected with 200 μl of saline (control) or 1% solution of respective compounds (dissolved in saline). Blood was collected 16 hr later, and the ratio of neutrophils in the whole blood cells was measured using Siemens Advia 120.

[3] = tested on: basophils in the whole blood cells; assay: ratio of basophils in whole blood cells, Siemens Advia 120 (Example 14)
Experimental: About 3-month-old C57/BL6 mice were intraperitoneally injected with 200 μl of saline (control) or 1% solution of respective compounds (dissolved in saline). Blood was collected 16 hr later, and the ratio of basophils in the whole blood cells was measured using Siemens Advia 120.

[4] = tested on: neutrophils in the peripheral blood; assay: number of neutrophils in peripheral blood, Siemens Advia 120 (Examples 4, 5)
Experimental: About 3-month-old C57/BL6 mice were intraperitoneally injected with 200 μl of saline (control) or 1% solution of respective compounds (dissolved in saline). Blood was collected 16 hr later, and the number of neutrophils in the peripheral blood was measured using Siemens Advia 120.

[5] = tested on: basophils in the peripheral blood; assay: number of basophils in peripheral blood, Siemens Advia 120 (Example 8)
Experimental: About 3-month-old C57/BL6 mice were intraperitoneally injected with 200 μl of saline (control) or 1% solution of respective compounds (dissolved in saline). Blood was collected 16 hr later, and the number of basophils in the peripheral blood was measured using Siemens Advia 120.

[6] = tested on: monocytes in the peripheral blood; assay: number of monocytes in peripheral blood, Siemens Advia 120 (Examples 6, 7)
Experimental: About 3-month-old C57/BL6 mice were intraperitoneally injected with 200 μl of saline (control) or 1% solution of respective compounds (dissolved in saline). Blood was collected 16 hr later, and the number of monocytes in the peripheral blood was measured using Siemens Advia 120.
About 3-month-old C57/BL6 mice were intraperitoneally injected with 200 μl of saline (control) or 1% allyl isothiocyanate solution (dissolved in saline). Blood was collected 16 hr later, and the number of monocytes in the peripheral blood was measured using Siemens Advia 120.

Question: How did the “ratio of monocytes in the whole blood cells” value (“ratio of monocytes” below) [1] turn out when “2-Methyl-(3 or 5 or 6)-methylthio pyrazine [2-Methyl-(3 or 5 or 6)-methylthio pyrazine (mixture of isomers)]” was run?
Answer: increases

Question: And the “ratio of neutrophils in the whole blood cells” value (from here on “ratio of neutrophils”) [2]?
Answer: increases

Question: How did the “ratio of neutrophils” value [2] turn out when `c1coc(Cn2cccc2)c1` [1-Furfurylpyrrole] was run?
Answer: increases

Question: What does the source list for `CC1(C)NCCS1` [2,2-Dimethylthiazolidine]?
Answer: ratio of neutrophils in the whole blood cells [2]: increases; ratio of basophils in the whole blood cells [3]: increases

Question: How did the “neutrophils in the peripheral blood (number)” value (“neutrophils … (number)” below) [4] turn out when `CCc1nccnc1CC` [2,3-Diethylpyrazine] was run?
Answer: increase

Question: What about the “ratio of neutrophils” value [2] of the same compound?
Answer: increases

Question: With `CC1NCCSC1C` (centres unmarked) [2,3-Dimethylthiomorpholine] as the compound, how does the “ratio of monocytes” value [1] read?
Answer: increases

Question: How did the “ratio of neutrophils” value [2] turn out when `Cc1nc(C)c(C)s1` [2,4,5-Trimethylthiazole] was run?
Answer: increases

Question: How did the “ratio of neutrophils” value [2] turn out when `Cc1c[nH]c(C)c1` [2,4-Dimethylpyrrole] was run?
Answer: increases

Question: For `Cc1ccc(C)o1` [2,5-Dimethylfuran], which “number of basophils in the peripheral blood” value [5] is on record?
Answer: increases

Question: For `Cc1cccc(C)n1` [2,6-Lutidine], which “number of basophils in the peripheral blood” value [5] is on record?
Answer: increases

Question: And the “ratio of basophils in the whole blood cells” value (shortened to “ratio of basophils”) [3]?
Answer: increases

Question: Which results are given for `C=CCSC1=NCCS1` [2-(Allylthio)-2-thiazoline]?
Answer: number of monocytes in the peripheral blood [6]: increase; ratio of monocytes in the whole blood cells [1]: increases

Question: How did the “neutrophils … (number)” value [4] turn out when `CSC1=NCCS1` [2-(Methylthio)-2-thiazoline] was run?
Answer: increase

Question: And the “ratio of neutrophils” value [2]?
Answer: increases

Question: For `CSc1nc2ccccc2s1` [2-(Methylthio)benzothiazole], which “neutrophils … (number)” value [4] is on record?
Answer: increase

Question: And the “ratio of neutrophils” value [2]?
Answer: increases

Question: Which results are given for `CC(=O)c1cccn1C` [2-Acetyl-1-methylpyrrole]?
Answer: neutrophils in the peripheral blood (number) [4]: increase; ratio of neutrophils in the whole blood cells [2]: increases

Question: For `CCc1nccnc1C(C)=O` [2-Acetyl-3-ethylpyrazine], which “ratio of monocytes” value [1] is on record?
Answer: increases

Question: What about the “ratio of neutrophils” value [2] of the same compound?
Answer: increases

Question: And the “ratio of basophils” value [3]?
Answer: increases

Question: For `CC(=O)c1ccc[nH]1` [2-Acetylpyrrole], which “neutrophils … (number)” value [4] is on record?
Answer: increase

Question: And the “ratio of neutrophils” value [2]?
Answer: increases

Question: Which results are given for `CC(=O)c1nccs1` [2-Acetylthiazole]?
Answer: ratio of neutrophils in the whole blood cells [2]: increases; ratio of basophils in the whole blood cells [3]: increases

Question: For `Clc1nccs1` [2-Chlorothiazole], which “ratio of neutrophils” value [2] is on record?
Answer: increases

Question: And the “ratio of basophils” value [3]?
Answer: increases

Question: Which “neutrophils … (number)” value [4] does the source give for `CCOc1nccs1` [2-Ethoxythiazole] here?
Answer: increase

Question: What about the “ratio of monocytes” value [1] of the same compound?
Answer: increases

Question: And the “ratio of neutrophils” value [2]?
Answer: increases

Question: Which “ratio of basophils” value [3] does the source give for `CCc1ccco1` [2-Ethylfuran] here?
Answer: increases

Question: How did the “ratio of neutrophils” value [2] turn out when `CCc1ccc[nH]1` [2-Ethylpyrrole] was run?
Answer: increases

Question: And the “ratio of basophils” value [3]?
Answer: increases

Question: How did the “neutrophils … (number)” value [4] turn out when `CCc1cccs1` [2-Ethylthiophene] was run?
Answer: increase

Question: For `Cc1nccnc1SCc1ccco1` [2-Furfurylthio-3-methylpyrazine], which “neutrophils … (number)” value [4] is on record?
Answer: increase

Question: And the “number of monocytes in the peripheral blood” value [6]?
Answer: increase

Question: What about the “ratio of monocytes” value [1] of the same compound?
Answer: increases

Question: What about the “ratio of neutrophils” value [2] of the same compound?
Answer: increases

Question: `CCCCCCc1cccs1` [2-Hexylthiophene] was tested. Which “neutrophils … (number)” value [4] did it give?
Answer: increase

Question: What about the “ratio of neutrophils” value [2] of the same compound?
Answer: increases

Question: With `CC1=NC(CC(C)C)SC1C` (centres unmarked) [2-Isobutyl-4,5-dimethyl-3-thiazoline] as the compound, how does the “neutrophils … (number)” value [4] read?
Answer: increase

Question: With `CC(C)Cc1nccs1` [2-Isobutylthiazole] as the compound, how does the “ratio of neutrophils” value [2] read?
Answer: increases

Question: `Cc1csc(C(C)C)n1` [2-Isopropyl-4-methylthiazole] was tested. Which “ratio of neutrophils” value [2] did it give?
Answer: increases

Question: And the “ratio of basophils” value [3]?
Answer: increases

Question: What does the source list for `SC1=NCCS1` [2-Mercaptothiazoline]?
Answer: neutrophils in the peripheral blood (number) [4]: increase; number of monocytes in the peripheral blood [6]: increase; ratio of monocytes in the whole blood cells [1]: increases; ratio of neutrophils in the whole blood cells [2]: increases; ratio of basophils in the whole blood cells [3]: increases

Question: Which results are given for `Cc1ccco1` [2-Methylfuran]?
Answer: number of basophils in the peripheral blood [5]: increases; ratio of basophils in the whole blood cells [3]: increases

Question: Which “ratio of monocytes” value [1] does the source give for `Cc1cc2ccccc2[nH]1` [2-Methylindole] here?
Answer: increases

Question: How did the “ratio of neutrophils” value [2] turn out when `Cc1nccs1` [2-Methylthiazole] was run?
Answer: increases

Question: What about the “ratio of basophils” value [3] of the same compound?
Answer: increases

Question: Which results are given for `CC1CNCCS1` (centres unmarked) [2-Methylthiomorpholine]?
Answer: neutrophils in the peripheral blood (number) [4]: increase; ratio of neutrophils in the whole blood cells [2]: increases

Question: How did the “ratio of neutrophils” value [2] turn out when `Cc1cccs1` [2-Methylthiophene] was run?
Answer: increases

Question: Which “ratio of neutrophils” value [2] does the source give for `CCC(=O)c1cccs1` [2-Propionyl thiophene] here?
Answer: increases

Question: What does the source list for `O=C1CSc2ccccc2N1` [2H-1,4-benzothiazin-3(4H)one]?
Answer: neutrophils in the peripheral blood (number) [4]: increase; ratio of neutrophils in the whole blood cells [2]: increases

Question: `CSCCCN=C=S` [3-(Methylthio)propyl isothiocyanate] was tested. Which “neutrophils … (number)” value [4] did it give?
Answer: increase

Question: With `CC(=O)c1cc(C)oc1C` [3-Acetyl-2,5-dimethylfuran] as the compound, how does the “ratio of basophils” value [3] read?
Answer: increases

Question: `CC(=O)c1cc(C)sc1C` [3-Acetyl-2,5-dimethylthiophene] was tested. Which “neutrophils … (number)” value [4] did it give?
Answer: increase

Question: And the “ratio of monocytes” value [1]?
Answer: increases

Question: And the “ratio of neutrophils” value [2]?
Answer: increases

Question: And the “ratio of basophils” value [3]?
Answer: increases

Question: For `CC(=O)c1cccnc1` [3-Acetylpyridine], which “neutrophils … (number)” value [4] is on record?
Answer: increase

Question: And the “ratio of neutrophils” value [2]?
Answer: increases

Question: `Clc1ccsc1` [3-Chlorothiophene] was tested. Which “neutrophils … (number)” value [4] did it give?
Answer: increase

Question: What about the “ratio of monocytes” value [1] of the same compound?
Answer: increases

Question: What about the “ratio of neutrophils” value [2] of the same compound?
Answer: increases

Question: What about the “ratio of basophils” value [3] of the same compound?
Answer: increases

Question: With `Cc1cc[nH]c1` [3-Methylpyrrole] as the compound, how does the “ratio of neutrophils” value [2] read?
Answer: increases

Question: `Cc1ccsc1` [3-Methylthiophene] was tested. Which “ratio of basophils” value [3] did it give?
Answer: increases

Question: What does the source list for `Cc1ncsc1C` [4,5-Dimethylthiazole]?
Answer: neutrophils in the peripheral blood (number) [4]: increase; ratio of monocytes in the whole blood cells [1]: increases; ratio of neutrophils in the whole blood cells [2]: increases

Question: Which “neutrophils … (number)” value [4] does the source give for `CSC1CSC=N1` (centres unmarked) [4-(Methylthio)-2-thiazoline] here?
Answer: increase

Question: What about the “ratio of monocytes” value [1] of the same compound?
Answer: increases

Question: And the “ratio of neutrophils” value [2]?
Answer: increases

Question: What does the source list for `CC(=O)c1ccncc1` [4-Acetylpyridine]?
Answer: neutrophils in the peripheral blood (number) [4]: increase; number of monocytes in the peripheral blood [6]: increase; ratio of monocytes in the whole blood cells [1]: increases; ratio of neutrophils in the whole blood cells [2]: increases

Question: For `C=CCCCN=C=S` [4-Pentenyl Isothiocyanate], which “neutrophils … (number)” value [4] is on record?
Answer: increase

Question: And the “ratio of neutrophils” value [2]?
Answer: increases

Question: For `Cc1nc(C(C)(C)C)cs1` [4-tert-Butyl-2-methylthiazole], which “neutrophils … (number)” value [4] is on record?
Answer: increase

Question: `CC(=O)c1sc(C)nc1C` [5-Acetyl-2,4-dimethylthiazole] was tested. Which “neutrophils … (number)” value [4] did it give?
Answer: increase

Question: And the “ratio of neutrophils” value [2]?
Answer: increases

Question: And the “ratio of basophils” value [3]?
Answer: increases

Question: For `C=CCN=C=S` [Allyl isothiocyanate], which “neutrophils … (number)” value [4] is on record?
Answer: increase

Question: And the “number of monocytes in the peripheral blood” value [6]?
Answer: increases

Question: And the “ratio of monocytes” value [1]?
Answer: increases

Question: And the “ratio of neutrophils” value [2]?
Answer: increases

Question: Which “neutrophils … (number)” value [4] does the source give for `C1CCCNCC1` [Azepane] here?
Answer: increase

Question: And the “ratio of monocytes” value [1]?
Answer: increases

Question: What about the “ratio of neutrophils” value [2] of the same compound?
Answer: increases

Question: With `c1ccc2sccc2c1` [Benzothiophene] as the compound, how does the “neutrophils … (number)” value [4] read?
Answer: increase

Question: What about the “ratio of neutrophils” value [2] of the same compound?
Answer: increases

Question: Which results are given for `S=C=NCc1ccccc1` [Benzyl isothiocyanate]?
Answer: neutrophils in the peripheral blood (number) [4]: increase; ratio of neutrophils in the whole blood cells [2]: increases

Question: `CC(C)N=C=S` [Isopropyl isothiocyanate] was tested. Which “neutrophils … (number)” value [4] did it give?
Answer: increase

Question: How did the “neutrophils … (number)” value [4] turn out when `C=C(C)CN=C=S` [Methallyl isothiocyanate] was run?
Answer: increase

Question: And the “ratio of neutrophils” value [2]?
Answer: increases

Question: For `c1cscn1` [Thiazole], which “ratio of neutrophils” value [2] is on record?
Answer: increases

Question: For `O=C1CSC(=O)N1` [Thiazolidine-2,4-dione], which “neutrophils … (number)” value [4] is on record?
Answer: increase

Question: Which “ratio of monocytes” value [1] does the source give for `C1CSCCN1` [Thiomorpholine] here?
Answer: increases

Reference: patent publication US20230149420A1, “ANTI-INFLAMMATORY IMMUNOENHANCER” (SCENT SCIENCE INTERNATIONAL INC., priority 2020, published 2023)
